Test results reported in ChEMBL document CHEMBL1132211, “The role of waters in docking strategies with incremental flexibility for carbohydrate derivatives: heat-labile enterotoxin, a multivalent test case” (J Med Chem, 1999).

Assay: Inhibitory concentration against Escherichia coli heat-labile enterotoxin (LT) binding to ganglioside GD1b was determined by ELISA assay
`O=[N+]([O-])c1cccc(O[C@@H]2O[C@H](CO)[C@H](O)[C@H](O)[C@H]2O)c1` showed an IC50 of 0.6 µM.
For `O=C(O)[C@H](O)[C@@H](O)[C@H](O)[C@H](O)CO[C@@H]1O[C@H](CO)[C@H](O)[C@H](O)[C@H]1O`, the IC50 was 7 µM.
`O=C[C@H](O)[C@@H](O)[C@@H](O)[C@H](O)CO` [GALACTOSE] showed an IC50 of 57 µM.
Compound `OC[C@H]1O[C@@H](O[C@@H]2[C@@H](CO)O[C@](O)(CO)[C@H]2O)[C@H](O)[C@@H](O)[C@H]1O` [LACTULOSE] has an IC50 of 15 µM.
`OC[C@H]1O[C@@H](S[C@@H]2O[C@H](CO)[C@H](O)[C@H](O)[C@H]2O)[C@H](O)[C@@H](O)[C@H]1O` [THIODIGALACTOSIDE] showed an IC50 of 4 µM.
Work on LACTOSE, ANHYDROUS yielded an IC50 of 45 µM.
